Assays:
[1] = tested on: serum calcium, serum phosphorous and alkaline phosphatase; assay: Pharmacodynamics of PTH in Yorkshire pigs; format: in vivo; parameters: sCa / sP / sALP: unit not given here; conditions: for sALP / sCa / sP: Yorkshire pigs
From the text: (§1) The serum calcium and serum phosphorous were estimated using Siemen's […] 744 Electrolyte Analyzer and for serum ALP Siemen's Dimension Expand Plus was used.
The pharmacodynamics data in subcutaneous and buccal/Sublingual groups are shown in Tables 21 and 22 and in FIGS. 63 and 64.

[2] = Summary of bioavailability of the formulations of the Examples compared to SC or IV; conditions: plasma, other: buccal/sublingual
[3] = tested on: serum calcium, serum phosphorous and alkaline phosphatase; assay: Pharmacodynamics of PTH in rats; format: in vivo, SD rats; parameters: sCa (serum calcium): unit not given here; conditions: for sALP (serum alkaline phosphatase) / sCa (serum calcium) / sP (serum phosphorous): subcutaneous 40 μg
From the text: as §1
The pharmacodynamics data in subcutaneous and buccal/Sublingual groups of rats are shown in Tables 27 and 28 and in FIGS. 67 and 68.

[4] = Buccal/Sublingual Sugar Truffle Shell (0.49 mg), 0 h
[5] = Buccal/Sublingual Sugar Truffle Shell (0.49 mg), 0.08 h
[6] = Buccal/Sublingual Sugar Truffle Shell (0.49 mg), 0.5 h
[7] = Buccal/Sublingual Sugar Truffle Shell (0.49 mg), 1 h
[8] = Buccal/Sublingual Sugar Truffle Shell (0.49 mg), 2 h
[9] = Buccal/Sublingual Sugar Truffle Shell (0.49 mg), 4 h
[10] = Buccal/Sublingual Sugar Truffle Shell (0.49 mg), 8 h
[11] = Buccal/Sublingual Sugar Truffle Shell (0.49 mg), 24 h

What does the source list for `CC[C@H](C)[C@H](NC(=O)[C@H](CCC(=O)O)NC(=O)[C@H](CO)NC(=O)[C@@H](NC(=O)[C@@H](N)CO)C(C)C)C(=O)N[C@@H](CCC(N)=O)C(=O)N[C@@H](CC(C)C)C(=O)N[C@@H](CCSC)C(=O)N[C@@H](Cc1cnc[nH]1)C(=O)N[C@@H](CC(N)=O)C(=O)N[C@@H](CC(C)C)C(=O)NCC(=O)N[C@@H](CCCCN)C(=O)N[C@@H](Cc1cnc[nH]1)C(=O)N[C@@H](CC(C)C)C(=O)N[C@@H](CC(N)=O)C(=O)N[C@@H](CO)C(=O)N[C@@H](CCSC)C(=O)N[C@@H](CCC(=O)O)C(=O)N[C@@H](CCCN=C(N)N)C(=O)N[C@H](C(=O)N[C@@H](CCC(=O)O)C(=O)N[C@@H](Cc1c[nH]c2ccccc12)C(=O)N[C@@H](CC(C)C)C(=O)N[C@@H](CCCN=C(N)N)C(=O)N[C@@H](CCCCN)C(=O)N[C@@H](CCCCN)C(=O)N[C@@H](CC(C)C)C(=O)N[C@@H](CCC(N)=O)C(=O)N[C@@H](CC(=O)O)C(=O)N[C@H](C(=O)N[C@@H](Cc1cnc[nH]1)C(=O)N[C@@H](CC(N)=O)C(=O)N[C@@H](Cc1ccccc1)C(=O)O)C(C)C)C(C)C` [PTH (1-34)]?
sALP [1, 4]: 170.55 ± 12.85; sCa [1, 4]: 9.46 ± 0.4; sP [1, 4]: 10.52 ± 0.33; sALP [1, 5]: 193.5 ± 9.32; sCa [1, 5]: 10.05 ± 0.17; sP [1, 5]: 9.87 ± 0.15; sALP [1, 6]: 170.25 ± 10.81; sCa [1, 6]: 9.77 ± 0.12; sP [1, 6]: 8.82 ± 0.17; sALP [1, 7]: 148.5 ± 11.9; sCa [1, 7]: 9.62 ± 0.04; sP [1, 7]: 8.3 ± 0.16; sALP [1, 8]: 137.75 ± 9.67; sCa [1, 8]: 9.25 ± 0.26; sP [1, 8]: 9.1 ± 0.49; sALP [1, 9]: 131 ± 11.91; sCa [1, 9]: 9.3 ± 0.34; sP [1, 9]: 9 ± 0.11; sALP [1, 10]: 128 ± 14.02; sCa [1, 10]: 9.17 ± 0.26; sP [1, 10]: 8.97 ± 0.17; sALP [1, 11]: 126.5 ± 15.28; sCa [1, 11]: 9 ± 0.18; sP [1, 11]: 9.02 ± 0.14; sALP ([1]; Subcutaneous (40 μg), 0 h): 116.5 ± 6.36; sCa ([1]; Subcutaneous (40 μg), 0 h): 9.35 ± 0.63; sP ([1]; Subcutaneous (40 μg), 0 h): 10.7 ± 0.14; sALP ([1]; Subcutaneous (40 μg), 0.08 h): 119.5 ± 2.12; sCa ([1]; Subcutaneous (40 μg), 0.08 h): 9.65 ± 0.77; sP ([1]; Subcutaneous (40 μg), 0.08 h): 10.52 ± 0.17; sALP ([1]; Subcutaneous (40 μg), 0.5 h): 134.5 ± 17.67; sCa ([1]; Subcutaneous (40 μg), 0.5 h): 9.95 ± 0.49; sP ([1]; Subcutaneous (40 μg), 0.5 h): 9.8 ± 0.28; sALP ([1]; Subcutaneous (40 μg), 1 h): 158 ± 38.18; sCa ([1]; Subcutaneous (40 μg), 1 h): 10.4 ± 0.14; sP ([1]; Subcutaneous (40 μg), 1 h): 9 ± 0.84; sALP ([1]; Subcutaneous (40 μg), 2 h): 152.5 ± 36.06; sCa ([1]; Subcutaneous (40 μg), 2 h): 10.3 ± 0.14; sP ([1]; Subcutaneous (40 μg), 2 h): 10.25 ± 1.06; sALP ([1]; Subcutaneous (40 μg), 4 h): 141.5 ± 33.23; sCa ([1]; Subcutaneous (40 μg), 4 h): 9.9 ± 0.42; sP ([1]; Subcutaneous (40 μg), 4 h): 11 ± 0; sALP ([1]; Subcutaneous (40 μg), 8 h): 133.5 ± 23.33; sCa ([1]; Subcutaneous (40 μg), 8 h): 9.5 ± 0.28; sP ([1]; Subcutaneous (40 μg), 8 h): 11.4 ± 0.28; sALP ([1]; Subcutaneous (40 μg), 24 h): 114.5 ± 3.53; sCa ([1]; Subcutaneous (40 μg), 24 h): 9.4 ± 0.28; sP ([1]; Subcutaneous (40 μg), 24 h): 11.6 ± 0.28; PD effect on serum calcium, serum phosphorous and serum alkaline phosphatase ([1]; pigs, PTH given by buccal/sublingual route): clearly indicates the effect on serum calcium, serum phosphorous and serum alkaline phosphatase; bioavailability [2]: > 7%; PD effect on serum calcium, serum phosphorous and serum alkaline phosphatase ([3]; PTH given by buccal/sublingual route): clearly indicates the effect on serum calcium, serum phosphorous and serum alkaline phosphatase; sALP (serum alkaline phosphatase) ([3]; time 0 hours): 98.5 ± 33.23; sCa (serum calcium) ([3]; time 0 hours): 9.05 ± 0.07; sP (serum phosphorous) ([3]; time 0 hours): 9.3 ± 0.28; sALP (serum alkaline phosphatase) ([3]; time 0.08 hours): 131 ± 1.41; sCa (serum calcium) ([3]; time 0.08 hours): 9.65 ± 0.77; sP (serum phosphorous) ([3]; time 0.08 hours): 8.85 ± 0.07; sALP (serum alkaline phosphatase) ([3]; time 0.5 hours): 136 ± 7.07; sCa (serum calcium) ([3]; time 0.5 hours): 10.2 ± 0.28; sP (serum phosphorous) ([3]; time 0.5 hours): 8.45 ± 0.21; sALP (serum alkaline phosphatase) ([3]; time 1 hours): 142 ± 5.65; sCa (serum calcium) ([3]; time 1 hours): 10.35 ± 0.35; sP (serum phosphorous) ([3]; time 1 hours): 4.85 ± 0.91; sALP (serum alkaline phosphatase) ([3]; time 2 hours): 184.5 ± 16.26; sCa (serum calcium) ([3]; time 2 hours): 10.45 ± 0.35; sP (serum phosphorous) ([3]; time 2 hours): 5.75 ± 1.06; sALP (serum alkaline phosphatase) ([3]; time 4 hours): 151 ± 21.21; sCa (serum calcium) ([3]; time 4 hours): 9.45 ± 0.21; sP (serum phosphorous) ([3]; time 4 hours): 8.65 ± 0.21; sALP (serum alkaline phosphatase) ([3]; time 8 hours): 131.5 ± 14.84; sCa (serum calcium) ([3]; time 8 hours): 9.25 ± 0.35; sP (serum phosphorous) ([3]; time 8 hours): 8.95 ± 0.07; sALP (serum alkaline phosphatase) ([3]; time 24 hours): 111 ± 21.21; sCa (serum calcium) ([3]; time 24 hours): 9.05 ± 0.21; sP (serum phosphorous) ([3]; time 24 hours): 9.35 ± 0.07

From patent US20240122847A1, “ORAL POLYPEPTIDE FORMULATIONS” (Bhami's Research Laboratory, Pvt. Ltd., priority 2022, published 2024)
